Experimental data taken from PMC10962654 (Journal of Food and Drug Analysis, 2023).
Where two headings read alike, the source gives them in different places.

Experiments:
cTn I = assay: Plasma cTn I; assay type: in vivo, Sprague Dawley rats; details: GHI-L ([…], i.v.), MI/R rats, Sigmoid-Emax model
[1] = MI/R rats, plasma, n = 6

SMILES | CL2 ([1]; GHI-H (GHI 10 mL/kg, i.v.)) [mL/min/kg] | K10 ([1]; GHI-H (GHI 10 mL/kg, i.v.)) [h⁻¹] | K12 ([1]; GHI-H (GHI 10 mL/kg, i.v.)) [h⁻¹] | K21 ([1]; GHI-H (GHI 10 mL/kg, i.v.)) [h⁻¹] | Q ([1]; GHI-H (GHI 10 mL/kg, i.v.)) [mL/min/kg] | V1 ([1]; GHI-H (GHI 10 mL/kg, i.v.)) [L/kg] | V2 ([1]; GHI-H (GHI 10 mL/kg, i.v.)) [L/kg] | t1/2α ([1]; GHI-H (GHI 10 mL/kg, i.v.)) [min] | CL1 ([1]; GHI-L (GHI […], i.v.)) [mL/min/kg] | CL2 ([1]; GHI-L (GHI […], i.v.)) [mL/min/kg] | K10 ([1]; GHI-L (GHI […], i.v.)) [h⁻¹] | K12 ([1]; GHI-L (GHI […], i.v.)) [h⁻¹] | K21 ([1]; GHI-L (GHI […], i.v.)) [h⁻¹] | Q ([1]; GHI-L (GHI […], i.v.)) [mL/min/kg] | V1 ([1]; GHI-L (GHI […], i.v.)) [L/kg] | t1/2α ([1]; GHI-L (GHI […], i.v.)) [min] | CL1 ([1]; GHI-M (GHI 5 mL/kg, i.v.)) [mL/min/kg] | CL2 ([1]; GHI-M (GHI 5 mL/kg, i.v.)) [mL/min/kg] | K10 ([1]; GHI-M (GHI 5 mL/kg, i.v.)) [h⁻¹] | K12 ([1]; GHI-M (GHI 5 mL/kg, i.v.)) [h⁻¹] | other results
C[C@@H]1O[C@@H](OC[C@H]2O[C@@H](Oc3c(-c4ccc(O)c(O)c4)oc4cc(O)cc(O)c4c3=O)[C@H](O)[C@@H](O)[C@@H]2O)[C@H](O)[C@H](O)[C@H]1O [Rutin, rutin] | 111.9 ± 61.47 | 25.55 ± 19.846 | 42.24 ± 19.866 | 7.333 ± 1.971 | 111.8 ± 61.52 | 0.239 ± 0.209 | 0.855 ± 0.277 | 0.72 ± 0.36 | 63.25 ± 8.27 | 104.4 ± 13.5 | 10.125 ± 0.978 | 16.754 ± 1.998 | 3.748 ± 0.381 | 104.4 ± 13.6 | 0.379 ± 0.071 | 1.44 ± 0.12 | 47.87 ± 4.4 | 83.63 ± 11.1 | 6.448 ± 1.858 | 11.318 ± 3.536 | Emax (maximal effect) of optimal PK/PD equation, ΔcTn I (cTn I): 4.632; CL1 ([1]; GHI-H (GHI 10 mL/kg, i.v.)): 46.88 ± 7.65 mL/min/kg; K21 ([1]; GHI-M (GHI 5 mL/kg, i.v.)): 4.751 ± 1.024 h⁻¹; Q ([1]; GHI-M (GHI 5 mL/kg, i.v.)): 83.63 ± 11.1 mL/min/kg; V1 ([1]; GHI-M (GHI 5 mL/kg, i.v.)): 0.466 ± 0.88 L/kg; V2 ([1]; GHI-M (GHI 5 mL/kg, i.v.)): 1.075 ± 0.133 L/kg; t1/2α ([1]; GHI-M (GHI 5 mL/kg, i.v.)): 2.1 ± 0.6 min
O=c1c(O[C@@H]2O[C@H](CO)[C@@H](O)[C@H](O)[C@H]2O)c(-c2ccc(O)cc2)oc2cc(O)cc(O)c12 [Kaempferol-3-O-glucoside, kaempferol-3-O-glucoside] | 141.2 ± 10.2 | 9.636 ± 0.934 | 17.927 ± 1.512 | 6.02 ± 0.636 | 141.2 ± 10.2 | 0.475 ± 0.044 | 1.419 ± 0.173 | 1.32 ± 0.12 | 87.58 ± 9.88 | 133.3 ± 27.68 | 10.09 ± 2.541 | 15.148 ± 3.65 | 2.832 ± 0.492 | 133.3 ± 27.67 | 0.54 ± 0.101 | 1.56 ± 0.3 | 68.72 ± 8.47 | 79.43 ± 17.82 | 8.042 ± 3.472 | 9.709 ± 5.342 | Emax (maximal effect) of optimal PK/PD equation, ΔcTn I (cTn I): 4.625; AUC(0-t) ([1]; GHI-H (GHI 10 mL/kg, i.v.)): 116.314 ± 56.651 ng·h/mL; AUC(0-∞) ([1]; GHI-H (GHI 10 mL/kg, i.v.)): 122.652 ± 56.297 ng·h/mL; t1/2β ([1]; GHI-H (GHI 10 mL/kg, i.v.)): 23.1 ± 3.18 min; AUC(0-t) ([1]; GHI-L (GHI […], i.v.)): 23.576 ± 12.633 ng·h/mL; AUC(0-∞) ([1]; GHI-L (GHI […], i.v.)): 25.109 ± 12.653 ng·h/mL; V2 ([1]; GHI-L (GHI […], i.v.)): 2.822 ± 0.3 L/kg; t1/2β ([1]; GHI-L (GHI […], i.v.)): 40.4 ± 5.64 min; AUC(0-t) ([1]; GHI-M (GHI 5 mL/kg, i.v.)): 31.49 ± 12.303 ng·h/mL; AUC(0-∞) ([1]; GHI-M (GHI 5 mL/kg, i.v.)): 35.448 ± 11.949 ng·h/mL; K21 ([1]; GHI-M (GHI 5 mL/kg, i.v.)): 3.087 ± 1.742 h⁻¹; Q ([1]; GHI-M (GHI 5 mL/kg, i.v.)): 79.4 ± 17.78 mL/min/kg; V1 ([1]; GHI-M (GHI 5 mL/kg, i.v.)): 0.59 ± 0.22 L/kg; V2 ([1]; GHI-M (GHI 5 mL/kg, i.v.)): 1.87 ± 0.735 L/kg; t1/2α ([1]; GHI-M (GHI 5 mL/kg, i.v.)): 2.7 ± 1.44 min; t1/2β ([1]; GHI-M (GHI 5 mL/kg, i.v.)): 41.5 ± 21.7 min
O=c1c(O[C@@H]2O[C@H](CO)[C@H](O)[C@H](O)[C@H]2O)c(-c2ccc(O)c(O)c2)oc2cc(O)cc(O)c12 [Hyperoside, hyperoside] | 120.9 ± 37.88 | 21.205 ± 16.45 | 26.235 ± 8.526 | 6.031 ± 0.862 | 121 ± 37.85 | 0.309 ± 0.126 | 1.207 ± 0.352 | 0.9 ± 0.24 | 88.93 ± 8.22 | 144.8 ± 10.5 | 11.259 ± 2.48 | 18.242 ± 3.358 | 2.929 ± 0.214 | 144.8 ± 10.5 | 0.493 ± 0.117 | 1.38 ± 0.3 | 76.58 ± 3.37 | 76.22 ± 11.2 | 14.742 ± 5.174 | 14.086 ± 2.688 | CL1 ([1]; GHI-H (GHI 10 mL/kg, i.v.)): 81.92 ± 12 mL/min/kg; V2 ([1]; GHI-L (GHI […], i.v.)): 2.979 ± 0.292 L/kg; K21 ([1]; GHI-M (GHI 5 mL/kg, i.v.)): 4.889 ± 0.407 h⁻¹; Q ([1]; GHI-M (GHI 5 mL/kg, i.v.)): 76.2 ± 11.2 mL/min/kg; V1 ([1]; GHI-M (GHI 5 mL/kg, i.v.)): 0.34 ± 0.1 L/kg; V2 ([1]; GHI-M (GHI 5 mL/kg, i.v.)): 0.935 ± 0.119 L/kg; t1/2α ([1]; GHI-M (GHI 5 mL/kg, i.v.)): 1.38 ± 0.3 min
